The target of one test is T1, α1BAR-α2C(YLLY) chimera (Homo sapiens, UniProt P35368, A122L/L314Y/V197L/W121Y).
T1 sequence (P35368 35-520 W121Y/A122L/V197L/L314Y): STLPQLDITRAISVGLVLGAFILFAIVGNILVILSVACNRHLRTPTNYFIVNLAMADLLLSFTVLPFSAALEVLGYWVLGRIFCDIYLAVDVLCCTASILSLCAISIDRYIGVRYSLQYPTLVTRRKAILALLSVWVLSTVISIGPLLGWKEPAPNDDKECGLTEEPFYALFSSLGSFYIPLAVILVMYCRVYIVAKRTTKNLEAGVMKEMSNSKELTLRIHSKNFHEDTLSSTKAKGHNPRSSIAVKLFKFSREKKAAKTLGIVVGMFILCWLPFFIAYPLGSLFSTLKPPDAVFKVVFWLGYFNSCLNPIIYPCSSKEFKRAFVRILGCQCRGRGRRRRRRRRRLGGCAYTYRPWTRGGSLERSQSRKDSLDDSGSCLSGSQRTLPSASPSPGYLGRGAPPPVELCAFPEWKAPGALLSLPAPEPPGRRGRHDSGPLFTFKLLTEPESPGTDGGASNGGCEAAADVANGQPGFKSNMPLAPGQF
Description: HTRF ligand-binding assay on whole transfected HEK293T/17 cells (QAPB saturation; competition with QAPB tracer). In general terms: Time-resolved FRET reads energy transfer from a long-lived donor to a nearby acceptor.

Test [1] concerns the target T2, α1BARXTAL (stabilized α1BAR with DARPin D12 fusion) (Homo sapiens, UniProt P35368, D191Y/E194V/F334L/G183V/I116T/P349L/S150Y/S168C/S95C/T295M/V124M/V333L).
T2 construct: deletion of N-terminal residues M1–N34 and intracellular loop three (ICL3) residues K249–L283, and fusion of DARPin D12[43],[68],[69] to residue C350^7.55; expressed in transfected cells; host or cells: HEK293T/17
Description: HTRF competition ligand-binding assay on whole transfected HEK293T/17 cells (QAPB tracer).

The structures appear in SMILES notation. “And” between values parts separate entries of the source, which are not always exact repeats. Equal entries are not always repeated. Where two headings read alike, the source gives them in different places.

T2 sequence (P35368 with tags, fused parts or gaps with the stated changes): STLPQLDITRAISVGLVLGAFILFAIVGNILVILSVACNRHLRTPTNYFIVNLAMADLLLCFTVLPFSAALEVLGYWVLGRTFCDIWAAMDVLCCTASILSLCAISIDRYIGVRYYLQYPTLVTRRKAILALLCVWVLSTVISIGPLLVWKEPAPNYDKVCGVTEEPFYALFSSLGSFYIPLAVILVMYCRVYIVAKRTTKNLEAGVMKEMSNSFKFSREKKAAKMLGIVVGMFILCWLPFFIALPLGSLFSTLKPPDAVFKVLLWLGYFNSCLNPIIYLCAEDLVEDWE

In the case of `COc1cc2nc(N3CCN(C(=O)c4ccco4)[C@H]4CCCC[C@H]43)nc(N)c2cc1OC` (relative stereo) [cyclazosin, [4-(4-amino-6,7-dimethoxyquinazolin-2-yl)-cis-octahydroquinoxalin-1-yl] furan-2-ylmethanone], the Ki is 3.72 nM at α1BAR-α2C(YLLY) chimera (pKi (competition binding), competition with 50 nM QAPB tracer, whole cells, mean); 6.17 nM in test [1] (competition with 2 nM QAPB tracer, whole cells, read-out: Ki); 11 nM and 3.94 nM and 5.44 nM in test [1] (construct α1BARXTAL, competition with Cyclazosin against QAPB tracer, HTRF, one value per experiment date, read-out: Calculated pKi values (converted)). In addition, the “weaker affinity compared to wild-type α1BAR” value at α1BAR-α2C(YLLY) chimera (α1BAR-α2C(YLLY) vs wild-type α1BAR) is recorded as ~4 fold.

The record behind these values is publication PMC8770593 (Nature Communications, 2022).
